Reference: patent US12678388B2, “Dermatological compositions and use thereof” (BONE SCI. BIO LTD., priority 2021, dated 2026)
Peptide text beside a SMILES is read from it.

Tests used:
Type in all cases: in vivo
[1] = system: albino rabbits; assay: Intracutaneous reactivity test; settings: for primary irritation index (Treated-Control): 0.2 ml intracutaneous; for erythema and oedema at treated sites: 24, 48 and 72 hours, same in vehicle control sites
Protocol: In order to test the potential irritation effects of the formulation according to certain embodiments of the present invention, an intracutaneous reactivity test was performed. Two extracts of a 3% w/v PFD5 hydrogel sample, one in a non-polar vehicle, cottonseed oil, and one in a polar vehicle, sodium chloride injection (0.9%), were prepared by immersing the sample in the relative solvents in order to reach a weight/volume ratio of 0.2 g/ml and incubating at 37±1° C. for 72±2 h in dynamic conditions (orbital stirrer). 0.2 ml of the two extracts and 0.2 ml of the respective solvents were intracutaneously injected in five sites of 3 albino rabbits, and macroscopical skin reactions, as erythema, oedema and eschar were evaluated. No abnormalities immediately after intradermal injection of sodium chloride injection extract and sodium chloride injection (vehicle control) were observed. […] The primary irritation index in sodium chloride injection (Treated-Control) was 0.00. No abnormalities immediately after intradermal injection of cottonseed oil extract and cottonseed oil (vehicle control) were observed. […] The primary irritation index in cottonseed oil (Treated-Control) was 0.00.

[2] = system: albino rabbits; assay: Implantation test (local implantation effects, femur); settings: 3% w/v PFD5 formulation
Protocol: In order to test the local implantation effects of a 3% w/v PFD5 formulation according to certain embodiments of the present invention, an implantation test was performed.
10 albino rabbits were used for the test: each animal was implanted with the test sample at the right femur and with negative control (USP reference standard control plastic, HDPE) at the left femur, for a total of two sites/animal.
One explant time was scheduled after 4 weeks. Animals were daily submitted to general objective exam with the purpose to detect possible local effects due to the sample. The behavior of animals was observed and all abnormalities were recorded. During the explant, all implanted sites with the test sample and with the negative control were harvested and observed macroscopically to determine any injuries. Implantation sites of each animal and local lymph nodes were preserved in formalin 10% buffer solution and used for histological evaluation. […] Nothing abnormal was detected macroscopically in both treated and control sites of all animals.

[3] = system: rats; assay: Tissue augmentation in subcutaneous rat model; settings: PFD5 3.5% w/v
Protocol: The effect of PFD5 3.5% w/v hydrogel on tissue augmentation was tested in a subcutaneous rat model and compared to the effect obtained in rats treated with a commercially available hyaluronic acid dermal filler. Individual rats were treated with 0.2 ml of PFD5 hydrogel or HA injection administered subcutaneously above the parietal bone. Animals were held for three days, one month and four months after which implants were excised and underwent histological examination and analysis for the area occupied by the implant. […] Due to the lower swellability of the PFD5 hydrogel as compared to the HA hydrogel, the area remained more invariable.

O=C(O)C[C@H](NC(=O)[C@@H]1CCCN1)C(=O)N[C@@H](Cc1ccccc1)C(=O)N[C@@H](CC(=O)O)C(=O)N[C@@H](Cc1ccccc1)C(=O)N[C@@H](CC(=O)O)C(=O)N[C@@H](Cc1ccccc1)C(=O)N[C@@H](CC(=O)O)C(=O)N[C@@H](Cc1ccccc1)C(=O)N[C@@H](CC(=O)O)C(=O)N[C@@H](Cc1ccccc1)C(=O)N[C@@H](CC(=O)O)C(=O)N1CCC[C@H]1C(=O)O [PFD5, Pro-(Asp-Phe)5-Asp-Pro] (H-PDFDFDFDFDFDP-OH)
primary irritation index (Treated-Control) ([1]; cottonseed oil extract of 3% w/v PFD5 hydrogel): 0.00
erythema and oedema at treated sites ([1]; cottonseed oil extract): a slight erythema and a slight oedema
primary irritation index (Treated-Control) ([1]; sodium chloride injection extract of 3% w/v PFD5 hydrogel): 0.00
erythema and oedema at treated sites ([1]; sodium chloride injection extract): no signs of erythema or oedema
inflammatory responses or necrosis at the sites of implantation ([2]; 4 weeks): no inflammatory responses or necrosis
local effects compared to the negative control ([2]; 4 weeks after implantation, control HDPE): Minimal local effects
adverse tissue reaction (histology) [3]: deprived of multinucleated giant cells or other adverse effects to nearby tissue
